Laboratory results as given in US8729089B2 (Gilead Sciences, Inc., priority 2006, dated 2014).

Legend:
[1] = CC50 assay (CellTiter-Glo) in Huh-7 HCV replicon cells; format: cell-based, human; conditions: human, 3 days incubation, CellTiter-Glo readout
Description: (§1) The anti-HCV activity of the pyrido[3,2-d]pyrimidine derivatives of this invention was tested in a human hepatoma Huh-7 cell line harboring a HCV replicon. The assay comprised the following steps:
(§2) Step 1: Compound Preparation and Serial Dilution
(§3) • 1. for water soluble pyrido[3,2-d]pyrimidine derivatives, a volume of 500 μL of solution in cell media (DMEM, 10% FBS, P/S, L-Glutamine) was prepared with a concentration being twice the concentration of the starting final serial dilution concentration. A volume of 150 μL of the solution was added to the pre-specified wells in column 1 of a 96-well cell culture plate (PerkinElmer, white plate, cat. #6005181, for EC50 assay; black plate, cat. #6005182 for CC50 assay). The rest of the plate, columns 2-12, was filled with 100 μL of cell media. The plate was then placed on a Precision 2000 Workstation to start the serial dilution. Compounds were diluted three times each step from column 1 to column 10. Column 11 was used as a blank control (no compound added). • 2. for pyrido[3,2-d]pyrimidine derivatives requiring DMSO to dissolve, serial dilution is performed in 50% DMSO in a 384-well plate. A solution containing a compound at 100-fold concentration of the starting final serial dilution concentration was prepared in 50% DMSO and added to the pre-specified wells in column 1 of a polypropylene 384-well plate. The plate was then placed on a Precision 2000 Workstation to start the serial dilution. After the serial dilution, a volume of 2 μL of the solution was transferred from the 384-well plate to a 96-well cell culture plate containing 100 μL of cell media on a Biomek FX Workstation. The DMSO concentration in the final assay condition was 0.5% after cells are added to the plate and the total volume in each well is brought to 200 μL.
(§4) Step 2: to each well of the serial dilution plate prepared above, 100 μL of cell media containing 6000 suspended Huh-7 HCV replicon cells was added with a Multidrop workstation. The plates were incubated for 3 days at 37° C. with 5% CO2.
(§5) • a) for the EC50 assay, the media in a 96-well cell culture plate was aspirated with a Biotek EL405 plate-washer. A volume of 200 μL of a solution containing a 1:1 mixture of cell-lysis buffer (Promega, Luciferase Cell Culture Lysis 5× Reagent, cat. #E1531) and luciferase substrate solution (Promega, Luciferase Assay, cat.#E4550) was added to each well of the plate with Multidrop. The plate was incubated for 30 minutes at room temperature before the luminescence signal was measured with a TopCount plate-reader. • b) for the CC50 assay, a volume of 100 μL of pre-mixed CellTiter-Glo (Promega, cat.#G7572) solution is added directly to the cell culture in each well of the plate and the luminescence signal is measured with a TopCount plate-reader after 10 minutes of incubation at room temperature.

[2] = system: HCV replicon in human hepatoma Huh-7 cell line; test: Anti-HCV replicon assay (EC50, luciferase); format: cell-based; conditions: Hepatitis C virus, Huh-7, 72 h
Description: as §1, §2, §3, §4, §5

SMILES | CC50 at 3 days [1] | EC50 [2]
CCOc1nc(NCc2cc(F)cc(F)c2)nc2ccc(-c3ccc(F)cc3)nc12 [Example 45, (3,5-Difluoro-benzyl)-[4-ethoxy-6-(4-fluoro-phenyl)-pyrido[3,2-d]pyrimidin-2-yl]-amine] | 5 to 25 µM | < 0.1 µM
CCOc1nc(NCc2cc(F)c(F)c(F)c2)nc2ccc(-c3ccc(F)cc3)nc12 [Example 46, [4-Ethoxy-6-(4-fluoro-phenyl)-pyrido[3,2-d]pyrimidin-2-yl]-(3,4,5-trifluoro-benzyl)-amine] | 5 to 25 µM | < 0.1 µM
CCOc1nc(NCc2cccc(F)c2)nc2ccc(-c3ccc(F)cc3)nc12 [Example 47, [4-Ethoxy-6-(4-fluoro-phenyl)-pyrido[3,2-d]pyrimidin-2-yl]-(3-fluoro-benzyl)-amine] | 5 to 25 µM | < 0.1 µM
CCOc1nc(NCc2cccc(Cl)c2F)nc2ccc(-c3ccc(F)cc3)nc12 [Example 48, (3-Chloro-2-fluoro-benzyl)-[4-ethoxy-6-(4-fluoro-phenyl)-pyrido[3,2-d]pyrimidin-2-yl]-amine] | > 25 µM | < 0.1 µM
CC(C)Nc1nc(Nc2ccc(F)cc2)nc2ccc(-c3ccc(F)cc3)nc12 [Example 49, 6-(4-Fluoro-phenyl)-N4-isopropyl-N2-(4-fluoro-phenyl)-pyrido[3,2-d]pyrimidine-2,4-diamine] | > 25 µM | 0.25 to 2 µM
CC(C)Nc1nc(Nc2ccccc2)nc2ccc(-c3ccc(F)cc3)nc12 [Example 50, 6-(4-Fluoro-phenyl)-N4-isopropyl-N2-phenyl-pyrido[3,2-d]pyrimidine-2,4-diamine] | > 25 µM | 0.25 to 2 µM
CN(C)c1nc(NCc2ccc(F)cc2)nc2ccc(-c3ccc(F)cc3)nc12 [Example 51, 6-(4-Fluoro-phenyl)-N4-(N,N-dimethyl)-N2-(4-fluoro-benzyl)-pyrido[3,2-d]pyrimidine-2,4-diamine] | > 25 µM | 0.25 to 2 µM
Cc1ccc(Nc2nc(NC(C)C)c3nc(-c4ccc(F)cc4)ccc3n2)nn1 [Example 52, 6-(4-Fluoro-phenyl)-N4-isopropyl-N2-(6-methyl-pyridazin-3-yl)-pyrido[3,2-d]pyrimidine-2,4-diamine] | 5 to 25 µM | 0.25 to 2 µM
CC(C)Nc1nc(NCc2ccccn2)nc2ccc(-c3ccc(F)cc3)nc12 [Example 53, 6-(4-Fluoro-phenyl)-N4-isopropyl-N2-pyridin-2-ylmethyl-pyrido[3,2-d]pyrimidine-2,4-diamine] | 5 to 25 µM | 0.1 to 0.25 µM
CC(C)Nc1nc(NCc2cccnc2)nc2ccc(-c3ccc(F)cc3)nc12 [Example 54, 6-(4-Fluoro-phenyl)-N4-isopropyl-N2-pyridin-3-ylmethyl-pyrido[3,2-d]pyrimidine-2,4-diamine] | 5 to 25 µM | 0.1 to 0.25 µM
CC(C)Nc1nc(NCC(F)(F)F)nc2ccc(-c3ccc(F)cc3)nc12 [Example 55, 6-(4-Fluoro-phenyl)-N4-isopropyl-N2-(2,2,2-trifluoro-ethyl)-pyrido[3,2-d]pyrimidine-2,4-diamine] | 5 to 25 µM | < 0.1 µM
CC(C)Nc1nc(NCCN2CCOCC2)nc2ccc(-c3ccc(F)cc3)nc12 [Example 56, 6-(4-Fluoro-phenyl)-N4-isopropyl-N2-(2-morpholin-4-yl-ethyl)-pyrido[3,2-d]pyrimidine-2,4-diamine] | 5 to 25 µM | 0.25 to 2 µM
CC(C)Nc1nc(NCC(F)F)nc2ccc(-c3ccc(F)cc3)nc12 [Example 57, N2-(2,2-Difluoro-ethyl)-6-(4-fluoro-phenyl)-N4-isopropyl-pyrido[3,2-d]pyrimidine-2,4-diamine] | < 5 µM | 0.25 to 2 µM
COCCNc1nc(NC(C)C)c2nc(-c3ccc(F)cc3)ccc2n1 [Example 58, 6-(4-Fluoro-phenyl)-N4-isopropyl-N2-(2-methoxy-ethyl)-pyrido[3,2-d]pyrimidine-2,4-diamine] | < 5 µM | 0.25 to 2 µM
CCN(CC)c1nc(NCc2ccc(S(N)(=O)=O)cc2)nc2ccc(-c3ccc(F)cc3)nc12 [Example 59, 4-{[4-Diethylamino-6-(4-fluoro-phenyl)-pyrido[3,2-d]pyrimidin-2-ylamino]-methyl}-benzenesulfonamide] | 5 to 25 µM | < 0.1 µM
Fc1ccc(-c2ccc3nc(NCC(F)(F)F)nc(NCC(F)(F)F)c3n2)cc1 [Example 60, 6-(4-Fluoro-phenyl)-2,4-bis(2,2,2-trifluoro-ethylamino)-pyrido[3,2-d]pyrimidine] | > 25 µM | < 0.1 µM
CCOc1nc(NCc2ccc(F)cc2)nc2ccc(-c3cnc(N)cn3)nc12 [Example 62, [6-(5-Amino-pyrazin-2-yl)-4-ethoxy-pyrido[3,2-d]pyrimidin-2-yl]-(4-fluoro-benzyl)-amine] | > 25 µM | < 0.1 µM
CCOc1nc(NCc2ccc(F)cc2)nc2ccc(-c3ccc(C(=O)NCCN(C)C)cc3)nc12 [Example 63, N-(2-Dimethylamino-ethyl)-4-[4-ethoxy-2-(4-fluoro-benzylamino)-pyrido[3,2-d]pyrimidin-6-yl]-benzamide] | < 5 µM | < 0.1 µM
CCOc1nc(NCc2ccc(F)cc2)nc2ccc(-c3ccc(F)c(Cl)c3)nc12 [Example 64, [6-(3-Chloro-4-fluoro-phenyl)-4-ethoxy-pyrido[3,2-d]pyrimidin-2-yl]-(4-fluoro-benzyl)-amine] | 5 to 25 µM | < 0.1 µM
CCOc1nc(NCc2ccc(F)cc2)nc2ccc(-c3ccc(C(=O)NC4CC4)cc3)nc12 [Example 65, N-Cyclopropyl-4-[4-ethoxy-2-(4-fluoro-benzylamino)-pyrido[3,2-d]pyrimidin-6-yl]-benzamide] | > 25 µM | < 0.1 µM
CCOc1nc(NCc2ccc(F)cc2)nc2ccc(-c3cccc(NS(C)(=O)=O)c3)nc12 [Example 66, N-{3-[4-Ethoxy-2-(4-fluoro-benzylamino)-pyrido[3,2-d]pyrimidin-6-yl]-phenyl}-methanesulfonamide] | < 5 µM | < 0.1 µM
CCOc1nc(NCc2ccc(F)cc2)nc2ccc(-c3ccc(NC(=O)C4CC4)cc3)nc12 [Example 67, Cyclopropanecarboxylic acid {4-[4-ethoxy-2-(4-fluoro-benzylamino)-pyrido[3,2-d]pyrimidin-6-yl]-phenyl}-amide] | 5 to 25 µM | < 0.1 µM
CCOc1nc(NCc2ccc(F)cc2)nc2ccc(-c3ccc(F)c(S(N)(=O)=O)c3)nc12 [Example 68, 5-[4-Ethoxy-2-(4-fluoro-benzylamino)-pyrido[3,2-d]pyrimidin-6-yl]-2-fluoro-benzenesulfonamide] | 5 to 25 µM | < 0.1 µM
CCOc1nc(NCc2ccc(F)cc2)nc2ccc(-c3ccc(NC(=O)CO)cc3)nc12 [Example 69, N-{4-[4-Ethoxy-2-(4-fluoro-benzylamino)-pyrido[3,2-d]pyrimidin-6-yl]-phenyl}-2-hydroxy-acetamide] | > 25 µM | < 0.1 µM
CCOc1nc(NCc2ccc(F)cc2)nc2ccc(-c3ccc(NC(=O)CN)cc3)nc12 [Example 70, 2-Amino-N-{4-[4-ethoxy-2-(4-fluoro-benzylamino)-pyrido[3,2-d]pyrimidin-6-yl]-phenyl}-acetamide] | < 5 µM | < 0.1 µM
CCOc1nc(NCc2ccc(F)cc2)nc2ccc(-c3ccc(NC(=O)NCCN4CCOCC4)cc3)nc12 [Example 71, 1-{4-[4-Ethoxy-2-(4-fluoro-benzylamino)-pyrido[3,2-d]pyrimidin-6-yl]-phenyl}-3-(2-morpholin-4-yl-ethyl)-urea] | < 5 µM | < 0.1 µM
CCOc1nc(NCc2ccc(F)cc2)nc2ccc(-c3ccc(NC(=O)N4CCOCC4)cc3)nc12 [Example 72, Morpholine-4-carboxylic acid {4-[4-ethoxy-2-(4-fluoro-benzylamino)-pyrido[3,2-d]pyrimidin-6-yl]-phenyl}-amide] | 5 to 25 µM | < 0.1 µM
CCOc1nc(NCc2ccc(F)cc2)nc2ccc(-c3ccc(NC(=O)N4CCCC4)cc3)nc12 [Example 73, Pyrrolidine-1-carboxylic acid {4-[4-ethoxy-2-(4-fluoro-benzylamino)-pyrido[3,2-d]pyrimidin-6-yl]-phenyl}-amide] | 5 to 25 µM | < 0.1 µM
